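Results reflect a 48-hour exposure of cells in 96-well plates to compound at five concentrations. Definition used: TGI = concentration required for complete inhibition of growth.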
What was measured:
Assay in all cases: NCI tumour cell line growth inhibition, 48 h
DLD-1 colon = tested on: DLD-1 colon
DMS 114 small cell lung = tested on: DMS 114 small cell lung
LXFL 529 NSCLC = tested on: LXFL 529 NSCLC
M19-MEL melanoma = tested on: M19-MEL melanoma
DMS 273 small cell lung = tested on: DMS 273 small cell lung
HOP-18 NSCLC = tested on: HOP-18 NSCLC
SN12K1 renal = tested on: SN12K1 renal
P388 leukemia = tested on: P388 leukemia
RXF-631 renal = tested on: RXF-631 renal
P388/ADR leukemia = tested on: P388/ADR leukemia

| Structure (SMILES) | TGI (DLD-1 colon) [µM] | TGI (DMS 114 small cell lung) [µM] | TGI (LXFL 529 NSCLC) [µM] | TGI (M19-MEL melanoma) [µM] | TGI (DMS 273 small cell lung) [µM] | TGI (HOP-18 NSCLC) [µM] | TGI (SN12K1 renal) [µM] | TGI (P388 leukemia) [µM] | TGI (RXF-631 renal) [µM] | TGI (P388/ADR leukemia) [µM] |
| --- | --- | --- | --- | --- | --- | --- | --- | --- | --- | --- |
| Cc1cccc(=O)c([O-])c1.Cc1cccc(=O)c([O-])c1.Cc1cccc(=O)c([O-])c1.Cc1cccc(=O)c([O-])c1.[Th+4] | > 100 | 15.6 | > 100 | 61.8 | 33 | > 100 | – | – | – | – |
| COc1ccccc1NC(=O)CSC(N)=O | > 100 | > 100 | – | > 100 | > 100 | > 100 | – | – | – | – |
| O=P1(N(CCCl)CCCl)NCCCO1 (stereo unspecified) | > 250 | > 250 | > 250 | > 250 | > 250 | 150 | > 250 | > 250 | > 250 | > 229 |
| O=C(NCCNCCO)N/N=C/c1ccccc1 | > 100 | > 100 | > 100 | – | > 100 | > 100 | – | – | – | – |
| Cc1ccc(Cl)c2c(=O)cc(-c3ccccc3)[nH]c12 | > 100 | – | > 100 | > 100 | > 100 | > 100 | – | – | – | – |
